Test results as given in patent US10137202B2 (priority 2014, dated 2018).
Square brackets hold non-standard residues; d marks the D form. Peptide text beside a SMILES is read from it. * marks the point of attachment. Dolaproine = CO[C@@H]([C@@H]1CCCN1)[C@@H](C)C(=O)O; Dil = CC[C@H](C)[C@H](NC)[C@@H](CC(=O)O)OC; X3 = C[C@@H](N*)[C@@H](O)c1ccccc1; NMeV = CN[C@H](C(=O)O)C(C)C

System: HT1080 cells
Format: cell-based, human
Conditions: read-out: IC50 (CPA assay; nM)

Structure (SMILES): CC[C@H](C)[C@@H]([C@@H](CC(=O)N1CCC[C@H]1[C@H](OC)[C@@H](C)C(=O)N[C@H](C)[C@@H](O)c1ccccc1)OC)N(C)C(=O)[C@@H](NC(=O)[C@@H](NC)C(C)C)C(C)C [MMAE, reference compound] (H-[NMeV]V[Dil][Dolaproine]-X3)
- IC50: 0.1 to 0.6 nM
